SMILES strings stand for the structures. Values after ≈ are worked out from the molar mass of the structure shown.

Data set [1] deals with CYP2D6 (Homo sapiens (Human), UniProt P10635). Description: Cytochrome P450 CYP2D6 inhibition in human liver microsomes. The data set is classed as in vitro ADME. The following applies: probe dextromethorphan 2 µM (dextrorphan formation); 1 uM test compound, human liver microsomes; average value from two experiments; negative values = no effective inhibition. In a few lines:
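Human liver microsomes (0.2 mg/mL) with 2 μM dextromethorphan in 100 mM PBS, test compound at 1 μM or 0.1-30 μM, 15 min preincubation then NADPH-started reaction for 20 min at 37° C, in duplicate. Dextrorphan formation by UPLC-MS/MS; IC50 from % decrease versus uninhibited control.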
(In general: Microsomes from liver hold many membrane-bound enzymes, among them those of drug oxidation.)

In data set [2] the test system is mPTP. Description: mPTP activity (Ca2+ retention) assay in isolated rat liver mitochondria. In kind it is biochemical. The following applies: isolated rat liver mitochondria; average value from multiple experiments (n ≥ 2). In a few lines: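 Freshly isolated female Sprague Dawley rat liver mitochondria were energised with succinate and rotenone in pH 7.4 buffer with Fluo5N, then pre-incubated 10 min at RT with compound (30 μM to 1 nM final) before a 75 μM CaCl2 bolus. The IC50 used 10-min fluorescence, normalised to DMSO and 5 μM cyclosporin A.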

Data set [3] in a line: PBS and FaSSIF solubility. The data set is classed as physicochemical. The following applies: aqueous buffer, kinetic from dmso stock; PBS pH 7.4, 2 hr at 25° C.; read-out: Solubility PBS (pH 7.4). Summed up:
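Solubility was measured from 10 mM DMSO stocks diluted into FaSSIF or PBS pH 7.4, in duplicate, then shaken at 1100 rpm for 2 hr at 25 °C. Filtrates were quantified by LC-MS/MS against an internal standard and a known-concentration standard.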

The nature of data set [4]: Microsomal clearance assay. The data set is classed as in vitro ADME. The following applies: rat liver microsomes; average value from two experiments. How it is done: The microsomal stability of test compounds was evaluated using rat liver microsomes (BiolVT) with and without the cofactors nicotinamide adenine dinucleotide phosphate (NADPH) and undine-diphosphate-glucuronic acid (UDPGA). Reactions were performed in a final volume of 250 μl pre-warmed (37° C.) 100 mM phosphate buffer containing 5 mM MgCl2, 0.025 mg/ml alamethicin, and 0.5 mg/ml rat liver microsomes. NADPH and UDPGA were included at 1 mM and 2 mM respectively, where appropriate. Reactions were started with the addition of 1 μM (final concentration) test compound. Verapamil was used as the positive control. Solutions were incubated in a water bath at 37° C. and aliquots collected at 0.5, 5, 15, 30 and 60 min. Reactions were stopped by the addition of 5 volumes of cold acetonitrile with internal standards (200 nM caffeine and 100 nM tolbutamide). Samples were centrifuged at 3220 g for 40 min. An aliquot of supernatant was diluted 1:1 In ultra-pure H2O, then used for LC-MS/MS analysis. Peak areas were determined from extracted ion chromatograms. The slope value, k, was determined by linear regression of the natural logarithm of the remaining percentage of the parent drug vs. incubation time curve. The in vitro half-life (in vitro t½) was determined from the slope value: in vitro t½=0.693/k. Conversion of the in vitro t½ (min) into the in vitro intrinsic clearance (in vitro CLint, in μL/min/mg protein) was done using the following equation (mean of duplicate determinations): […]

Chain of CYP2D6 (P10635 whole entry): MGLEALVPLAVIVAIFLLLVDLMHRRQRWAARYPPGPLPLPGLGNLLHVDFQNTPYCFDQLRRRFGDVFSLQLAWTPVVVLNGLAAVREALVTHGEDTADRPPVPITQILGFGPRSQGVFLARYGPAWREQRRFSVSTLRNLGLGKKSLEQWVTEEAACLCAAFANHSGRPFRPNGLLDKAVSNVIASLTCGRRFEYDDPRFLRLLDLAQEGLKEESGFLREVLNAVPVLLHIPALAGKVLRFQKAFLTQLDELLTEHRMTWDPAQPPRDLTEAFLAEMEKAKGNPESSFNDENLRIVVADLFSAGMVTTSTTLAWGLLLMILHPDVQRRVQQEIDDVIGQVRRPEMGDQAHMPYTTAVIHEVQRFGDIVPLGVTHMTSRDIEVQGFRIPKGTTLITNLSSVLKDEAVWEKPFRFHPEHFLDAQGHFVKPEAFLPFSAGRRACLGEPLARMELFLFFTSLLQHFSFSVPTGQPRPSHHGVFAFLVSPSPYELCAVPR

As a reminder, the inhibition is the drop in the measured response relative to a control, in per cent. As usually defined, the solubility is how much of the substance goes into solution per volume. The term microsomal CLint denotes the capacity of the preparation to metabolise the compound, expressed as a volume cleared per time. A low value points to greater metabolic stability. Turning to `Cc1c(F)cccc1NC(=O)/C=C/c1ccc2nn[nH]c2c1` [Example 1, (E)-3-(1H-benzo[d][1,2,3]triazol-6-yl)-N-(3-fluoro-2-methylphenyl)acrylamide], the inhibition at 20 min, 1 µM in data set [1] was -2.11%. In addition, in data set [2], the “mPTP Rat liver pIC50” value was determined as 7.3. The solubility at 2 h in data set [3] amounted to 22.2 µM (≈ 6.58 µg/mL). The same molecule showed a microsomal CLint at 1 µM in data set [4] of 106 µL/min/mg.
The like results for `Cc1c(F)cccc1NC(=O)/C=C/c1cc(F)c2c(c1)NC(=O)C2` [Example 18, (E)-N-(3-fluoro-2-methylphenyl)-3-(4-fluoro-2-oxoindolin-6-yl)acrylamide] were, in that order, 1.2%, 6.0, 1.11 µM (≈ 0.364 µg/mL) and 23 µL/min/mg.
As for `CC1Cc2ccccc2C1NC(=O)/C=C/c1ccc2c(c1)NC(=O)C2` (stereo not drawn) [Example 21, (E)-N-(2-methyl-2,3-dihydro-1H-inden-1-yl)-3-(2-oxoindolin-6-yl)acrylamide], the inhibition at 20 min, 1 µM in data set [1] turned out to be 0.91%. Besides, the “mPTP Rat liver pIC50” value in data set [2] is listed as 6.1. Moreover, the solubility at 2 h in data set [3] worked out at 26 µM (≈ 8.64 µg/mL). The molecule also yielded a microsomal CLint at 1 µM in data set [4] of 38 µL/min/mg.

(Values after patent US20250179028A1, “ACRYLAMIDE COMPOUNDS” (NRG THERAPEUTICS LTD, priority 2022, published 2025).)
